Laboratory results published in patent publication US9796711B2, “Substituted pyrazolo[3,4-b]pyridin-6-carboxylic acids and method of use” (AbbVie S.àr.l., priority 2015, dated 2017).

Target: T1, CFTR ΔF508 (Homo sapiens, UniProt P13569, DEL508-508)
T1 construct: bronchial epithelial cells isolated from CF patients homozygous for the CFTR ΔF508 mutation; McGill University; Asterand; University of North Carolina hAEC-CF; host or cells: primary human bronchial epithelial cells from CF patients homozygous for ΔF508
Assay: Chronic TECC assay on primary bronchial epithelial cells (corrector, co-corrector and potentiator)
Format: cell-based
Conditions: chronic TECC, AUC = full area under the curve upon forskolin stimulation, with co-corrector and potentiator, 24 hours; for EC50: read-out: EC50 (nM) (AUC)
Procedure: Primary Bronchial Epithelial Cells Protocol
The TECC (Tranepithelial Clamp Circuit, EP-design) assay measures the functionality of the cystic fibrosis Transmembrane Conductance regulator (CFTR) by measuring the short circuit current (Isc) generated over the basolateral and apical membrane of lung epithelial cells. In TECC the transepithelial potential PD and transepithelial resistance (Rt)) are measured in an open circuit and transformed to Ieq using Ohm's law. 24 Wells can be measured simultaneously allowing a higher throughput compared to Ussing chambers.
For this purpose, bronchial epithelial cells isolated from CF patients homozygous for the CFTR ΔF508 mutation (hAEC-CF, Epithelix, Geneva, Switzerland; McGill University, Montreal, Qc; Asterand, Detroit, Mich.; University of North Carolina, Chapel Hill, N.C.) are plated on type IV collagen-coated Transwell® supports (Costar). Human airway epithelia are generated by provision of an air-liquid interface for 21 days to form well-differentiated polarized cultures that resemble in vivo pseudo-stratified ciliated epithelium (Fulcher, M. L., Gabriel, S., Burns, K. A., Yankaskas, J. R., Randell, S. H., 2005. Well-differentiated human airway epithelial cell cultures. Methods Mol. Med. 107, 183-206). The differentiated cells are treated with test corrector compound(s) (corrector alone or in combination with co-corrector, 4-[(2R,4R)-4-({[1-(2,2-difluoro-1,3-benzodioxol-5-yl)cyclopropyl]carbonyl}amino)-7-methoxy-3,4-dihydro-2H-chromen-2-yl]benzoic acid (G924806/A-1618261) (“acute”) or test corrector compounds, co-corrector and potentiator, N-(3-carbamoyl-5,5,7,7-tetramethyl-4,7-dihydro-5H-thieno[2,3-c]pyran-2-yl)-1H-pyrazole-5-carboxamide GLPG1837, (“chronic”) for 24 hours basolaterally to allow sufficient expression of properly folded CFTR protein on the membrane. All compound plates contained negative controls (DMSO) and positive controls (0.15 μM, 4-[(2R,4R)-4-({[1-(2,2-difluoro-1,3-benzodioxol-5-yl)cyclopropyl]carbonyl}amino)-7-(difluoromethoxy)-3,4-dihydro-2H-chromen-2-yl]benzoic acid).
For electrophysiological recording of the “chronic” experiments, the human airway epithelia are mounted in the TECC heating plate for electrophysiological measurement and kept at 37° C. The epithelia are bathed in a NaCl-Ringer solution (120 mM NaCl, 25 mM NaHCO3, 1.2 mM CaCl2, 1.2 mM MgCl2, 0.8 mM KH2PO4, 0.8 mM K2HPO4, pH 7.4, 5 mM glucose) on both the basolateral and apical sides. Test compounds (corrector, co-corrector, 4-[(2R,4R)-4-({[1-(2,2-difluoro-1,3-benzodioxol-5-yl)cyclopropyl]carbonyl}amino)-7-(difluoromethoxy)-3,4-dihydro-2H-chromen-2-yl]benzoic acid, and potentiator, N-(3-carbamoyl-5,5,7,7-tetramethyl-4,7-dihydro-5H-thieno[2,3-c]pyran-2-yl)-1H-pyrazole-5-carboxamide), are re-added to the recording solution prior to measurement. Apical amiloride is used to inhibit the endogenous ENaC currents while forskolin is applied on both apical and basolateral side to stimulate CFTR. Measurements are done during a 20 minute timeframe with recordings every 2 minutes. The increase in Ieq is used as a measure for the increased CFTR activity, EC50 values can be generated by measuring impact of different concentrations of compound on Ieq on primary cells, for this purpose each transwell is treated with a different compound concentration. Inhibitor-172, an inhibitor specific for CFTR, is used to test the specificity of the tested compounds. Raw data were normalized to percentage activity values using the equation: 100×(Sample−Negative control)/(Positive control−Negative Control).

T1 sequence (P13569 with tags, fused parts or gaps DEL508-508): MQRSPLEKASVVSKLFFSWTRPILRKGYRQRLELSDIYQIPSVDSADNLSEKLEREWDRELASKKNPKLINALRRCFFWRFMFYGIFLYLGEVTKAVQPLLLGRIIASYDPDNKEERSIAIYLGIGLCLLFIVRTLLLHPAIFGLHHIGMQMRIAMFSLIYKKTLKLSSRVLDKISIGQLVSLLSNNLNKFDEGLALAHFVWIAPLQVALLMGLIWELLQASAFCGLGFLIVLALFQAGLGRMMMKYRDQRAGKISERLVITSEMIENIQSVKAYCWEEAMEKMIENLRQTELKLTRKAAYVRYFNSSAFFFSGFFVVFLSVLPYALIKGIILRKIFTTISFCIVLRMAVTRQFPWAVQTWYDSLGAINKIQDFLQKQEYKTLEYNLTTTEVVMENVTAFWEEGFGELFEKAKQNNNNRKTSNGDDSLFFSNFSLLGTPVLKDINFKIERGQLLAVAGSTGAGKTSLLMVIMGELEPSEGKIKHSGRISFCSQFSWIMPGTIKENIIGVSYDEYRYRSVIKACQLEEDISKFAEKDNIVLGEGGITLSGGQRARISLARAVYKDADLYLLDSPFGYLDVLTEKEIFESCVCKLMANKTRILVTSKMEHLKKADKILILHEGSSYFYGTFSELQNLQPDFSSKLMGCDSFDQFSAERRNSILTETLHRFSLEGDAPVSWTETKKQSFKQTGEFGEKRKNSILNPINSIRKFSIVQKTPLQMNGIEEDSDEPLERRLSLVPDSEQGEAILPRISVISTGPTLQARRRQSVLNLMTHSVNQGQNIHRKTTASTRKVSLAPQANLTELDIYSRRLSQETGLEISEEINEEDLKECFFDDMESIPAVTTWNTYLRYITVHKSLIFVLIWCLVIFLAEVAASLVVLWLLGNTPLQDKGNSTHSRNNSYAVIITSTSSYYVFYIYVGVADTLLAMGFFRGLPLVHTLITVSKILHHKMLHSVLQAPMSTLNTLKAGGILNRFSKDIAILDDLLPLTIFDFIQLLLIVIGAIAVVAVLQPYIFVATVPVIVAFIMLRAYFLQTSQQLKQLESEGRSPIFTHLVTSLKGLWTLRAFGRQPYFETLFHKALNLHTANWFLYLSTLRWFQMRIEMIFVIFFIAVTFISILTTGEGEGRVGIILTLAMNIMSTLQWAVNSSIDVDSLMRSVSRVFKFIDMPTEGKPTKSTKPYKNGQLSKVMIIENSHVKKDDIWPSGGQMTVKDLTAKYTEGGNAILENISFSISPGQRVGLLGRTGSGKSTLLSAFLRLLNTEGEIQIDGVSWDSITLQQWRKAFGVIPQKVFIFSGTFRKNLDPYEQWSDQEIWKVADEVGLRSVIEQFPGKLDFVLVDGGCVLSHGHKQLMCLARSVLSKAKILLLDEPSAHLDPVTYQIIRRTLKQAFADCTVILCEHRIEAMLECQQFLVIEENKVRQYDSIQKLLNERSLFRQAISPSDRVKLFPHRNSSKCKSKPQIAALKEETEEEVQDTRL

| Structure (SMILES) | EC50 [nM] | % Activity at 1 μM (AUC**) [%] | % Activity at 3 μM (AUC) [%] |
| --- | --- | --- | --- |
| CN1CCC2(CC1)CCN(c1cc(C(=O)O)nc3c1c(C1CCC1)nn3-c1ccccc1)CC2 [compound 699, 3-cyclobutyl-4-(9-methyl-3,9-diazaspiro[5.5]undecan-3-yl)-1-phenyl-1H-pyrazolo[3,4-b]pyridine-6-carboxylic acid] | 162 |  |  |
| O=C(O)c1cc(N2CCC(N3CCN(C4CC4)CC3)CC2)c2c(C3CCC3)nn(-c3ccccc3)c2n1 [compound 738, 3-cyclobutyl-4-[4-(4-cyclopropylpiperazin-1-yl)piperidin-1-yl]-1-phenyl-1H-pyrazolo[3,4-b]pyridine-6-carboxylic acid] | 23 | 230 |  |
| CC(C)c1nn(-c2ccc(F)cc2)c2nc(C(=O)O)cc(N3CCC(N4CCN(C5CC5)CC4)CC3)c12 [compound 754, 4-[4-(4-cyclopropylpiperazin-1-yl)piperidin-1-yl]-1-(4-fluorophenyl)-3-(propan-2-yl)-1H-pyrazolo[3,4-b]pyridine-6-carboxylic acid] |  | 190 |  |
| CC(C)c1nn(-c2ccc(F)cc2)c2nc(C(=O)O)cc(N3CCC(C(C)N4CCCC4)CC3)c12 (stereo not shown) [compound 789, 1-(4-fluorophenyl)-3-(propan-2-yl)-4-{4-[1-(pyrrolidin-1-yl)ethyl]piperidin-1-yl}-1H-pyrazolo[3,4-b]pyridine-6-carboxylic acid] |  | 235 |  |
| CC(C)c1nn(-c2ccc(F)cc2)c2nc(C(=O)O)cc(N3CCC(CN4CCCCC4)CC3)c12 [compound 790, 1-(4-fluorophenyl)-4-{4-[(piperidin-1-yl)methyl]piperidin-1-yl}-3-(propan-2-yl)-1H-pyrazolo[3,4-b]pyridine-6-carboxylic acid] | 120 | 220 |  |
| CO[C@@H]1CCN(CC2CCN(c3cc(C(=O)O)nc4c3c(C3CCC3)nn4-c3ccccc3)CC2)C1 [compound 803, 3-cyclobutyl-4-(4-{[(3R)-3-methoxypyrrolidin-1-yl]methyl}piperidin-1-yl)-1-phenyl-1H-pyrazolo[3,4-b]pyridine-6-carboxylic acid] |  | 161.4501 |  |
| COC[C@H]1CCN(CC2CCN(c3cc(C(=O)O)nc4c3c(C3CCC3)nn4-c3ccccc3)CC2)C1 [compound 804, 3-cyclobutyl-4-(4-{[(3S)-3-(methoxymethyl)pyrrolidin-1-yl]methyl}piperidin-1-yl)-1-phenyl-1H-pyrazolo[3,4-b]pyridine-6-carboxylic acid] |  | 290 |  |
| O=C(O)c1cc(N2CCC(CCN3CCOCC3)CC2)c2c(C3CCC3)nn(-c3ccc(F)cc3)c2n1 [compound 810, 3-cyclobutyl-1-(4-fluorophenyl)-4-{4-[2-(morpholin-4-yl)ethyl]piperidin-1-yl}-1H-pyrazolo[3,4-b]pyridine-6-carboxylic acid] |  | 191.4768 |  |
| O=C(O)c1cc(N2CCC(N3CCC(F)CC3)CC2)c2c(C3CCC3)nn(-c3ccc(F)cc3)c2n1 [compound 849, 3-cyclobutyl-4-(4-fluoro[1,4′-bipiperidin]-1′-yl)-1-(4-fluorophenyl)-1H-pyrazolo[3,4-b]pyridine-6-carboxylic acid] | 15.6 | 256.6667 |  |
| COCCN1CCN(c2ccc(-c3cc(C(=O)O)nc4c3c(C3CCC3)nn4C3CCCCC3)cn2)CC1 [compound 878, 3-cyclobutyl-1-cyclohexyl-4-{6-[4-(2-methoxyethyl)piperazin-1-yl]pyridin-3-yl}-1H-pyrazolo[3,4-b]pyridine-6-carboxylic acid] |  | 170 |  |
| O=C(O)c1cc(N2CCC(N3CCN(C4CC4)CC3)CC2)c2c(C3CCC3)nn(-c3ccc(F)cc3)c2n1 [compound 886, 3-cyclobutyl-4-[4-(4-cyclopropylpiperazin-1-yl)piperidin-1-yl]-1-(4-fluorophenyl)-1H-pyrazolo[3,4-b]pyridine-6-carboxylic acid] |  | 282.5409 |  |
| O=C(O)c1cc(N2CCC3(CC2)CCN(C2CC2)CC3)c2c(C3CCC3)nn(-c3ccc(F)cc3)c2n1 [compound 887, 3-cyclobutyl-4-(9-cyclopropyl-3,9-diazaspiro[5.5]undecan-3-yl)-1-(4-fluorophenyl)-1H-pyrazolo[3,4-b]pyridine-6-carboxylic acid] | 1340 | 273.3871 |  |
| CC(C)N1CCC2(CCN(c3cc(C(=O)O)nc4c3c(C3CCC3)nn4-c3ccc(F)cc3)CC2)CC1 [compound 890, 3-cyclobutyl-1-(4-fluorophenyl)-4-[9-(propan-2-yl)-3,9-diazaspiro[5.5]undecan-3-yl]-1H-pyrazolo[3,4-b]pyridine-6-carboxylic acid] |  | 366.6667 |  |
| COC1CCN(C2CCN(c3cc(C(=O)O)nc4c3c(C3CCC3)nn4-c3ccc(F)cc3)CC2)CC1 [compound 892, 3-cyclobutyl-1-(4-fluorophenyl)-4-(4-methoxy[1,4′-bipiperidin]-1′-yl)-1H-pyrazolo[3,4-b]pyridine-6-carboxylic acid] | 900 | 188.3291 |  |
| O=C(O)c1cc(N2CCC3(CC2)CCN(C2CCC2)CC3)c2c(C3CCC3)nn(-c3ccc(F)cc3)c2n1 [compound 894, 3-cyclobutyl-4-(9-cyclobutyl-3,9-diazaspiro[5.5]undecan-3-yl)-1-(4-fluorophenyl)-1H-pyrazolo[3,4-b]pyridine-6-carboxylic acid] |  | 300 |  |
| COCCN1CCC2(CC1)CCN(c1cc(C(=O)O)nc3c1c(C1CCC1)nn3-c1ccc(F)cc1)CC2 [compound 897, 3-cyclobutyl-1-(4-fluorophenyl)-4-[9-(2-methoxyethyl)-3,9-diazaspiro[5.5]undecan-3-yl]-1H-pyrazolo[3,4-b]pyridine-6-carboxylic acid] |  | 375 |  |
| O=C(O)c1cc(N2CCC(N3CCC(O)CC3)CC2)c2c(C3CCC3)nn(-c3ccc(F)cc3)c2n1 [compound 898, 3-cyclobutyl-1-(4-fluorophenyl)-4-(4-hydroxy[1,4′-bipiperidin]-1′-yl)-1H-pyrazolo[3,4-b]pyridine-6-carboxylic acid] | 2640 |  | 150.7853 |
| O=C(O)c1cc(N2CCC(N3CCOCC3)CC2)c2c(C3CCC3)nn(-c3cccc(OC(F)F)c3)c2n1 [compound 910, 3-cyclobutyl-1-[3-(difluoromethoxy)phenyl]-4-[4-(morpholin-4-yl)piperidin-1-yl]-1H-pyrazolo[3,4-b]pyridine-6-carboxylic acid] |  |  | 531.5026 |
| CC(F)(F)c1cccc(-n2nc(C3CCC3)c3c(N4CCC(N5CCOCC5)CC4)cc(C(=O)O)nc32)c1 [compound 915] |  |  | 423.3333 |
| CC(C)Oc1cccc(-n2nc(C3CCC3)c3c(N4CCC(N5CCOCC5)CC4)cc(C(=O)O)nc32)n1 [compound 924, 3-cyclobutyl-4-[4-(morpholin-4-yl)piperidin-1-yl]-1-{6-[(propan-2-yl)oxy]pyridin-2-yl}-1H-pyrazolo[3,4-b]pyridine-6-carboxylic acid] | 10.6 |  | 235.9027 |
| CC(C)Oc1nn(C2CCCCC2)c2nc(C(=O)O)cc(-c3ccc(CN4CC(N(C)C)C4)cc3)c12 [compound 927, 1-cyclohexyl-4-(4-{[3-(dimethylamino)azetidin-1-yl]methyl}phenyl)-3-[(propan-2-yl)oxy]-1H-pyrazolo[3,4-b]pyridine-6-carboxylic acid] | 1940 |  |  |
